What was measured:
Type in all cases: ADME
Cytochrome P450 1A2 [1] = target: T1, Cytochrome P450 1A2 (Homo sapiens, UniProt P05177); test: Clinically relevant inducers of human liver microsomal P450 enzymes, isoform CYP1A2; settings: microsomes
T1 sequence (P05177 whole entry): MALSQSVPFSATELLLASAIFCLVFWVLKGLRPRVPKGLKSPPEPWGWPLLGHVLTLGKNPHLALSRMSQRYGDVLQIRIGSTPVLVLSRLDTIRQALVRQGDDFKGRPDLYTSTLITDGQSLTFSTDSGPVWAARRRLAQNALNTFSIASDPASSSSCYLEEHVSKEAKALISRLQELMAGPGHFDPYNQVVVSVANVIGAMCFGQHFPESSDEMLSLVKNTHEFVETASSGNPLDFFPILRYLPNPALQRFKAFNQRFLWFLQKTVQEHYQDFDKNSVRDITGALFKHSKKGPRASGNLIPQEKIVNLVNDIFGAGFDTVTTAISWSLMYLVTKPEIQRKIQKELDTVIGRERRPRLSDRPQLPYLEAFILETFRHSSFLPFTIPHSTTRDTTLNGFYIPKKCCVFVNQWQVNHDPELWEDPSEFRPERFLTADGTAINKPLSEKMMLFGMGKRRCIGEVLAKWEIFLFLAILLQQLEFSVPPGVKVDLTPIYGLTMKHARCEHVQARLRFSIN

[2] = target: T2, UDP-glucuronosyltransferase 1A7 (Homo sapiens, UniProt Q9HAW7); test: Substrate of human UDP-glucuronosyltransferase UGT1A7
T2 sequence (Q9HAW7 whole entry): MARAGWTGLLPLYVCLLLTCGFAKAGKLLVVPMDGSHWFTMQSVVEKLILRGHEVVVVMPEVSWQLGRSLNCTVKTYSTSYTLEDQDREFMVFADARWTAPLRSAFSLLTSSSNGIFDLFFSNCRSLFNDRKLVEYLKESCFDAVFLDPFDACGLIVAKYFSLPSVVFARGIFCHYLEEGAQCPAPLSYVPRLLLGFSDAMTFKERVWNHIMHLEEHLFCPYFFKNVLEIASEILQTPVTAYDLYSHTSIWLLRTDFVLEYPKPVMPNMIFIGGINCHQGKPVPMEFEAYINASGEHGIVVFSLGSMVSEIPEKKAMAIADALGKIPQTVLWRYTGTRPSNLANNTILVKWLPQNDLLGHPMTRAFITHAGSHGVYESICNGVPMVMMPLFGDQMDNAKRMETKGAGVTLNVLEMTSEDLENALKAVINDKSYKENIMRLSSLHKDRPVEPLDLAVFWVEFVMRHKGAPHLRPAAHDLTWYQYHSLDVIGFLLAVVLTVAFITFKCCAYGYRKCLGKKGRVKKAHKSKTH

Cytochrome P450 1A2 [3] = target: T1, Cytochrome P450 1A2; test: Clinically relevant inhibitors of human liver microsomal P450 enzymes, isoform CYP1A2; settings: microsomes
Cytochrome P450 2D6 = Cytochrome P450 2D6 (Homo sapiens, UniProt P10635); test: Clinically relevant inhibitors of human liver microsomal P450 enzymes, isoform CYP2D6; settings: microsomes
Sequence of Cytochrome P450 2D6 (P10635 whole entry, canonical isoform): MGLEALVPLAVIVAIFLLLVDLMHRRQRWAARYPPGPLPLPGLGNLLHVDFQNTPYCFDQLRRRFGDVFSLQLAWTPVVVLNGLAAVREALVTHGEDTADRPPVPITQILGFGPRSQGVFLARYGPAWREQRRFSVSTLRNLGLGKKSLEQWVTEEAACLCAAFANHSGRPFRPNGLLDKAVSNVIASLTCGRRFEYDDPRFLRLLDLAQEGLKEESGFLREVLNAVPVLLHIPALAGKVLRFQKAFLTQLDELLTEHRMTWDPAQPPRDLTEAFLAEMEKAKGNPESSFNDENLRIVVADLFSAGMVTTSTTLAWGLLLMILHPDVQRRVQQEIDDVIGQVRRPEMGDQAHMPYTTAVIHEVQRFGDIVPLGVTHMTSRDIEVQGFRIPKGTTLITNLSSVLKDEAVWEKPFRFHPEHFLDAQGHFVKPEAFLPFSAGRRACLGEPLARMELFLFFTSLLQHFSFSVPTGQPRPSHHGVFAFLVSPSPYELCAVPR

[4] = target: T3, UDP-glucuronosyltransferase 1A8 (Homo sapiens, UniProt Q9HAW9); test: Substrate of human UDP-glucuronosyltransferase UGT1A8
T3 sequence (Q9HAW9 whole entry): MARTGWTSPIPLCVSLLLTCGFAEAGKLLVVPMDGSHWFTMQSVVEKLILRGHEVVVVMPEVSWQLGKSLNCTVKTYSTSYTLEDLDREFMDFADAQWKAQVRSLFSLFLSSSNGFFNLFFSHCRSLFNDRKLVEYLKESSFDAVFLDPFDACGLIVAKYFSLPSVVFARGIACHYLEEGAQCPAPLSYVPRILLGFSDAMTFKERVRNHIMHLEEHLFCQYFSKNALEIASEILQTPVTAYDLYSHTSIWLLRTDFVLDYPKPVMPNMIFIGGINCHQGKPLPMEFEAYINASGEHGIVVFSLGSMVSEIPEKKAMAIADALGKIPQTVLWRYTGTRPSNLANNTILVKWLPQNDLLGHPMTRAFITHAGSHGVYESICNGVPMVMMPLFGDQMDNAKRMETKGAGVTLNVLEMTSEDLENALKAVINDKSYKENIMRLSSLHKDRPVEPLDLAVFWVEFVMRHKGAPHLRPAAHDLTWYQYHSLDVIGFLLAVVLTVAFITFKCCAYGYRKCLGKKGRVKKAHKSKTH

[5] = target: T4, UDP-glucuronosyltransferase 1A10 (Homo sapiens, UniProt Q9HAW8); test: Substrate of human UDP-glucuronosyltransferase UGT1A10
T4 sequence (Q9HAW8 whole entry): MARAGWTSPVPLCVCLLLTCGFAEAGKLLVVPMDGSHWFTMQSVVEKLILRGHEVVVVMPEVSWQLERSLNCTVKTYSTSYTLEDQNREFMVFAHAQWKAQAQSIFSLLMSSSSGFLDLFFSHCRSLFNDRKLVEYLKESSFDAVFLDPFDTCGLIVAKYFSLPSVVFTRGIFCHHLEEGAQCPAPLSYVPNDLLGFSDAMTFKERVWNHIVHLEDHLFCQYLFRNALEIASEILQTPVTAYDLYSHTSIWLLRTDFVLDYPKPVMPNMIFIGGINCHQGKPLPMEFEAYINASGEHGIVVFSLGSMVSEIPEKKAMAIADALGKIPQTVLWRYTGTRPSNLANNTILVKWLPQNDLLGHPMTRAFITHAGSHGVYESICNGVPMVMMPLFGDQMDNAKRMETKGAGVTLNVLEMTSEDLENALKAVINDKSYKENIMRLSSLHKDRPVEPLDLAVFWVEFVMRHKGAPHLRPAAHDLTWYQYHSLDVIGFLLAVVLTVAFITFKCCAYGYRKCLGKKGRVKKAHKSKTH

Sulfotransferase 1E1 = target: T5, Sulfotransferase 1E1 (Homo sapiens, UniProt P49888); test: Major substrate of human cytosolic sulfotransferase SULT1E1
T5 sequence (P49888 whole entry): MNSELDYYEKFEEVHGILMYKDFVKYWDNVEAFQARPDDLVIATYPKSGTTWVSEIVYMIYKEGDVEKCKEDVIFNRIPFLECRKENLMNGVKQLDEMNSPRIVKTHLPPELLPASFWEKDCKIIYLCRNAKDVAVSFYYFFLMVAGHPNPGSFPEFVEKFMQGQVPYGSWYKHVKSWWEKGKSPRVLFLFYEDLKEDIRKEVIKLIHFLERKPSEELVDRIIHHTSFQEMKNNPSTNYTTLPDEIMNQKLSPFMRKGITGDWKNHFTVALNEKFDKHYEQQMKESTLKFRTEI

[6] = target: T6, UDP-glucuronosyltransferase 2B4 (Homo sapiens, UniProt P06133); test: Substrate of human UDP-glucuronosyltransferase UGT2B4
T6 sequence (P06133 whole entry): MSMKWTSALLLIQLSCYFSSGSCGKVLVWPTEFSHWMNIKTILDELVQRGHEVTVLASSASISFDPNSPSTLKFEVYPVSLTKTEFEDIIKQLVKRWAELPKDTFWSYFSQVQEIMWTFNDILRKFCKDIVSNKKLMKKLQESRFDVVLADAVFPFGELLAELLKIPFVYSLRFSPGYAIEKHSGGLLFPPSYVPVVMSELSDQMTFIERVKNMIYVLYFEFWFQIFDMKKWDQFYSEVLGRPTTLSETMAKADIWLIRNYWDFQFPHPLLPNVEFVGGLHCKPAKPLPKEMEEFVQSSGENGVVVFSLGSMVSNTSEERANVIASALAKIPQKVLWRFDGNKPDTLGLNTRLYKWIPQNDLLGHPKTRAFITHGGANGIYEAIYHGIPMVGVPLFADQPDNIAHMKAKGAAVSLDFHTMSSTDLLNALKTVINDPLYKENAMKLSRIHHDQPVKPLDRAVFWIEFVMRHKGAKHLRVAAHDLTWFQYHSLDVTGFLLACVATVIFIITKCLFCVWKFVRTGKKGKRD

[7] = target: T7, UDP-glucuronosyltransferase 1A4 (Homo sapiens, UniProt P22310); test: Substrate of human UDP-glucuronosyltransferase UGT1A4
T7 sequence (P22310 whole entry): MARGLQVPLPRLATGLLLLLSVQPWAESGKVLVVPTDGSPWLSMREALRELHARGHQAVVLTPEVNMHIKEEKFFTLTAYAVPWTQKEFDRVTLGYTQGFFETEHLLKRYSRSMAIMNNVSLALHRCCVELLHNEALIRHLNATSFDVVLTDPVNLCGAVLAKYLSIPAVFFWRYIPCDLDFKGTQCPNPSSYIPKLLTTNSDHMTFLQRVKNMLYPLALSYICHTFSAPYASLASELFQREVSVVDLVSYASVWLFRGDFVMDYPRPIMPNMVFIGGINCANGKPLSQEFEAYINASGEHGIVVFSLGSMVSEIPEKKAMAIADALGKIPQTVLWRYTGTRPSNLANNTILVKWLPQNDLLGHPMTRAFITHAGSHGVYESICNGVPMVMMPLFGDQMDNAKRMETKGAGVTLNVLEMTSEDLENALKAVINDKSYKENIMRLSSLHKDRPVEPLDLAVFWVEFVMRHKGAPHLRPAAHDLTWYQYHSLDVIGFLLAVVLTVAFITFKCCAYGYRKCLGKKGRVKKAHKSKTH

[8] = target: T8, UDP-glucuronosyltransferase 1A6 (Homo sapiens, UniProt P19224); test: Substrate of human UDP-glucuronosyltransferase UGT1A6
T8 sequence (P19224 whole entry): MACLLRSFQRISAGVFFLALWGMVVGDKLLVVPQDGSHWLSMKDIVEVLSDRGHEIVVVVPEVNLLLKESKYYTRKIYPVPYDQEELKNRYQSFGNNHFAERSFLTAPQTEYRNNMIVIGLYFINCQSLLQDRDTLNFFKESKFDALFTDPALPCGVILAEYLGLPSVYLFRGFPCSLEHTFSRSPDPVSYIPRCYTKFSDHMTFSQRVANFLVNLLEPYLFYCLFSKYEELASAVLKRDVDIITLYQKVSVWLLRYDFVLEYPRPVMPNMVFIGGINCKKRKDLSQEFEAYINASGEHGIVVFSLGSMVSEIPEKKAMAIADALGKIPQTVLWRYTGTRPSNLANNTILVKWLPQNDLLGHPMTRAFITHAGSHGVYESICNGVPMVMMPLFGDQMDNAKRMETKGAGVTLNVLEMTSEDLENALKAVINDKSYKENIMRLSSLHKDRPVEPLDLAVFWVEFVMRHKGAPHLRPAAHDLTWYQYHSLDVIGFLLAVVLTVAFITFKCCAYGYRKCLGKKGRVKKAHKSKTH

[9] = target: T9, UDP-glucuronosyltransferase 2B15 (Homo sapiens, UniProt P54855); test: Substrate of human UDP-glucuronosyltransferase UGT2B15
T9 sequence (P54855 whole entry): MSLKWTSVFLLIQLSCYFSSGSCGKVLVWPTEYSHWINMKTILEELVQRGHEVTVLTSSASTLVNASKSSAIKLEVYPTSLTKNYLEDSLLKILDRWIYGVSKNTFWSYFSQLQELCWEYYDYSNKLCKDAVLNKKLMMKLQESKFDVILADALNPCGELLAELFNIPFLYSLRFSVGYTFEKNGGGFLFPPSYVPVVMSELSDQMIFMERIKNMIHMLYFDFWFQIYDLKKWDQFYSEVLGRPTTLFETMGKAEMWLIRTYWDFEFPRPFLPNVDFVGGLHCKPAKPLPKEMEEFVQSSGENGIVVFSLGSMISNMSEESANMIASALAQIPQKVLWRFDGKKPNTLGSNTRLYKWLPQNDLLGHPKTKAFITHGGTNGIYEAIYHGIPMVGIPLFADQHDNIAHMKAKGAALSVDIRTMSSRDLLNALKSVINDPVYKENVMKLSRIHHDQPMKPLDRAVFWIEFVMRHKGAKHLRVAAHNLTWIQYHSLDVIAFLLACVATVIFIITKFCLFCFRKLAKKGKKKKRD

Cytochrome P450 2C19 = Cytochrome P450 2C19 (Homo sapiens, UniProt P33261); test: Clinically relevant substrates of human liver microsomal P450 enzymes, isoform CYP2C19; settings: microsomes
Sequence of Cytochrome P450 2C19 (P33261 whole entry, canonical isoform): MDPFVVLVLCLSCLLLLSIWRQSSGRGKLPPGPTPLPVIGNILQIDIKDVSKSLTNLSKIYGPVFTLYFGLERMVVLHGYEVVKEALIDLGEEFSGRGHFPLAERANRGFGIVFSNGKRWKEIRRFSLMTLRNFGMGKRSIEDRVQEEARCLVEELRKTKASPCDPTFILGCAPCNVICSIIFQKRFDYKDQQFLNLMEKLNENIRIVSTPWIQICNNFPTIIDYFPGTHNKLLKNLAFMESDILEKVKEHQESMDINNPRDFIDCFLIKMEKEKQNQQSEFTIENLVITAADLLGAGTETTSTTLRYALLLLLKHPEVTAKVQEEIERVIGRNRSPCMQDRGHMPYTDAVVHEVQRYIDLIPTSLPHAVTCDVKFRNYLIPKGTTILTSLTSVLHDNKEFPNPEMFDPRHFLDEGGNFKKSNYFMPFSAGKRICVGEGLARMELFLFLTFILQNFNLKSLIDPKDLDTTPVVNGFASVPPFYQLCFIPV

O=c1cc(-c2ccccc2)oc2ccc3ccccc3c12 [BETA-NAPHTHOFLAVONE]
Activity (Cytochrome P450 1A2 [1]): Inducer

CCCCCCCCOC(=O)c1cc(O)c(O)c(O)c1 [OCTYL_GALLATE]
Activity [2]: Substrate

CN/C(=N/CCSCc1nc[nH]c1C)NC#N [CIMETIDINE]
Activity (Cytochrome P450 1A2 [3]): Inhibitor
Activity (Cytochrome P450 2D6): Inhibitor

COc1c(C)c2c(c(O)c1C/C=C(\C)CCC(=O)O)C(=O)OC2 [MYCOPHENOLIC ACID]
Activity [2]: Substrate
Activity [4]: Substrate
Activity [5]: Substrate

C[C@]12CC[C@@H]3c4ccc(O)c(O)c4CC[C@H]3[C@@H]1CCC2=O
Activity (Sulfotransferase 1E1): Substrate
Activity [2]: Substrate

C[C@H](CCC(=O)O)[C@H]1CC[C@H]2[C@@H]3C[C@H](O)[C@@H]4C[C@H](O)CC[C@]4(C)[C@H]3CC[C@]12C [HYODEOXYCHOLIC_ACID]
Activity [6]: Substrate

COc1ccc2c3c1O[C@H]1[C@@H](O)C=C[C@H]4[C@@H](C2)N(C)CC[C@@]341 [CODEINE]
Activity [6]: Substrate

CN(C/C=C/C#CC(C)(C)C)Cc1cccc2ccccc12 [TERBINAFINE]
Activity (Cytochrome P450 2D6): Inhibitor

Fc1ccc([C@@H]2CCNC[C@H]2COc2ccc3c(c2)OCO3)cc1 [PAROXETINE]
Activity (Cytochrome P450 2D6): Inhibitor

Cc1ccc2cc3c(ccc4ccccc43)c3c2c1CC3 [3-METHYLCHOLANTHRENE]
Activity (Cytochrome P450 1A2 [1]): Inducer

Nc1nnc(-c2cccc(Cl)c2Cl)c(N)n1 [LAMOTRIGINE]
Activity [7]: Substrate

CN1CCN(CCCN2c3ccccc3Sc3ccc(C(F)(F)F)cc32)CC1 [TRIFLUOPERAZINE]
Activity [7]: Substrate

Oc1ccc(-c2ccccc2)cc1
Activity [2]: Substrate

CN(C)CCC=C1c2ccccc2C=Cc2ccccc21 [CYCLOBENZAPRINE]
Activity [7]: Substrate

CN(C)CCC=C1c2ccccc2CCc2ccccc21 [AMITRIPTYLINE]
Activity [7]: Substrate

COCC(=O)O[C@]1(CCN(C)CCCc2nc3ccccc3[nH]2)CCc2cc(F)ccc2[C@@H]1C(C)C [MIBEFRADIL]
Activity (Cytochrome P450 2D6): Inhibitor

Cc1cc2c(s1)Nc1ccccc1N=C2N1CCN(C)CC1 [OLANZAPINE]
Activity [7]: Substrate

CCc1c2c(nc3ccc(O)cc13)-c1cc3c(c(=O)n1C2)COC(=O)[C@]3(O)CC [7-ETHYL-10-HYDROXYCAMPTOTHECIN]
Activity [8]: Substrate
Activity [2]: Substrate
Activity [9]: Substrate

Cc1c(OCC(F)(F)F)ccnc1C[S+]([O-])c1nc2ccccc2[nH]1 (stereo unspecified) [LANSOPRAZOLE]
Activity (Cytochrome P450 2C19): Substrate
Activity (Cytochrome P450 1A2 [1]): Inducer
